Assay results from patent US20240018133A1, “MODULATORS OF THE INTEGRATED STRESS PATHWAY” (Calico Life Sciences LLC, priority 2019, published 2024).

Tested on: ATF4 luciferase reporter (human full-length ATF4 5'-UTR fused to firefly luciferase) in HEK293T cells
Experiment: ATF4-Luc assay (in vitro model of VWMD): HEK293T cells carrying ATF4 luciferase reporter, tunicamycin-treated
Format: cell-based
Conditions: 1 μg/mL tunicamycin, 7 hours, One Glo luminescence
In short: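 Stable HEK293T line with human ATF4 5′-UTR–firefly luciferase reporter treated with 1 μg/mL tunicamycin plus 200 nM compound for 7 h. Luminescence read; EC50 derived.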

Q: Which EC50 does the source give for `O=C(COc1ccc(Cl)c(F)c1)NC12CC(NC(=O)C3CNc4cc(Cl)ccc4O3)(C1)C2` (single isomer, unassigned) [Compound 103] here?
A: < 10 nM

Same assay, conditions: Homo sapiens, HEK-293T, 1 μg/mL tunicamycin, 7 hours, One Glo luminescence

Q: `O=C(NC12CCC(NC(=O)[C@@H]3C[C@H](O)c4cc(Cl)ccc4O3)(CC1)CC2)c1ccc(OC(F)(F)F)cn1` [Compound 362, N-(4-{[(2S,4S)-6-chloro-4-hydroxy-3,4-dihydro-2H-1-benzopyran-2-carbonyl]amino}bicyclo[2.2.2]octan-1-yl)-5-(trifluoromethoxy)pyridine-2-carboxamide] was tested. Which EC50 did it give?
A: 500 to 2000 nM

Q: For `O=C(COc1ccc(Cl)c(F)c1)NC12CC(NC(=O)[C@H]3C[C@@H](O)c4cc(Cl)ccc4O3)(C1)C2` [Compound 196, (2R,4R)-6-chloro-N-{3-[2-(4-chloro-3-fluorophenoxy)acetamido]bicyclo[1.1.1]pentan-1-yl}-4-hydroxy-3,4-dihydro-2H-1-benzopyran-2-carboxamide], which EC50 is on record?
A: < 10 nM

Q: With `O=C(NC12CC(NC(=O)[C@H]3C[C@@H](O)c4cc(Cl)ccc4O3)(C1)C2)c1cnc(C2CN(CC(F)(F)F)C2)o1` [Compound 388, N-(3-{[(2R,4R)-6-chloro-4-hydroxy-3,4-dihydro-2H-1-benzopyran-2-carbonyl]amino}bicyclo[1.1.1]pentan-1-yl)-2-[1-(2,2,2-trifluoroethyl)azetidin-3-yl]-1,3-oxazole-5-carboxamide] as the compound, how does the EC50 read?
A: 250 to 500 nM

Q: Which EC50 does the source give for `O=C(NC12CCC(NC(=O)[C@H]3CC(=O)c4cc(Cl)ccc4O3)(CC1)C[C@@H]2O)c1cnc(C(F)F)cn1` [Compound 352, N-[(2S)-4-{[(2R)-6-chloro-4-oxo-3,4-dihydro-2H-1-benzopyran-2-carbonyl]amino}-2-hydroxybicyclo[2.2.2]octan-1-yl]-5-(difluoromethyl)pyrazine-2-carboxamide] here?
A: 500 to 2000 nM

Q: `O=C(COc1ccc(C(F)(F)F)nc1)NC12CC(NC(=O)[C@H]3C[C@@H](O)c4cc(Cl)ccc4O3)(C1)C2` [Compound 226, (2R,4R)-6-chloro-4-hydroxy-N-[3-(2-{[6-(trifluoromethyl)pyridin-3-yl]oxy}acetamido)bicyclo[1.1.1]pentan-1-yl]-3,4-dihydro-2H-1-benzopyran-2-carboxamide] was tested. Which EC50 did it give?
A: < 10 nM

Q: With `COc1ccc2oc(C(=O)NC34CC(NC(=O)COc5ccc(Cl)c(F)c5)(C3)C4)cc(=O)c2c1` [Compound 287, N-{3-[2-(4-chloro-3-fluorophenoxy)acetamido]bicyclo[1.1.1]pentan-1-yl}-6-methoxy-4-oxo-4H-1-benzopyran-2-carboxamide] as the compound, how does the EC50 read?
A: 50 to 250 nM

Q: With `O=C(NC12CC(NC(=O)[C@H]3C[C@@H](O)c4cc(Cl)ccc4O3)(C1)C2)c1cnn(-c2ccc(C(F)(F)F)nc2)c1` [Compound 392, N-(3-{[(2R,4R)-6-chloro-4-hydroxy-3,4-dihydro-2H-1-benzopyran-2-carbonyl]amino}bicyclo[1.1.1]pentan-1-yl)-1-[6-(trifluoromethyl)pyridin-3-yl]-1H-pyrazole-4-carboxamide] as the compound, how does the EC50 read?
A: 500 to 2000 nM

Q: For `O=C(COc1ccc(Cl)c(F)c1)NC12CC(NC(=O)[C@@H]3C=Cc4cc(Cl)ccc4O3)(C1)C2` [Compound 279, (2S)-6-chloro-N-{3-[2-(4-chloro-3-fluorophenoxy)acetamido]bicyclo[1.1.1]pentan-1-yl}-2H-1-benzopyran-2-carboxamide], which EC50 is on record?
A: < 10 nM

Q: Which EC50 does the source give for `CN1CC(C(=O)NC23CCC(NC(=O)COc4ccc(Cl)c(F)c4)(CC2)[C@@H](O)C3)Oc2ccc(Cl)cc21` (stereo partly drawn) [Compound 107, 6-chloro-N-{(3S)-4-[2-(4-chloro-3-fluorophenoxy)acetamido]-3-hydroxybicyclo[2.2.2]octan-1-yl}-4-methyl-3,4-dihydro-2H-1,4-benzoxazine-2-carboxamide] here?
A: < 10 nM

Q: `O=C(COc1ccc(Cl)cn1)NC12CC(NC(=O)[C@H]3CC(=O)c4cc(Cl)ccc4O3)(C1)C2` [Compound 331, (2R)-6-chloro-N-(3-{2-[(5-chloropyridin-2-yl)oxy]acetamido}bicyclo[1.1.1]pentan-1-yl)-4-oxo-3,4-dihydro-2H-1-benzopyran-2-carboxamide] was tested. Which EC50 did it give?
A: 50 to 250 nM

Q: With `Cc1ccc2oc(C(=O)NC34CC(NC(=O)COc5ccc(Cl)c(F)c5)(C3)C4)cc(=O)c2c1` [Compound 341, N-{3-[2-(4-chloro-3-fluorophenoxy)acetamido]bicyclo[1.1.1]pentan-1-yl}-6-methyl-4-oxo-4H-1-benzopyran-2-carboxamide] as the compound, how does the EC50 read?
A: < 10 nM

Q: How did the EC50 turn out when `O=C(COc1ccc(Cl)c(F)c1)NC12CC(NC(=O)c3cc(=O)c4cccc(Cl)c4o3)(C1)C2` [Compound 294, 8-chloro-N-{3-[2-(4-chloro-3-fluorophenoxy)acetamido]bicyclo[1.1.1]pentan-1-yl}-4-oxo-4H-1-benzopyran-2-carboxamide] was run?
A: 500 to 2000 nM

Q: `O=C(COc1ccc(Cl)c(F)c1)NC12CC(NC(=O)C3CC(O)c4ccc(C(F)(F)F)cc4O3)(C1)C2` (stereo not drawn) [Compound 243, N-{3-[2-(4-chloro-3-fluorophenoxy)acetamido]bicyclo[1.1.1]pentan-1-yl}-4-hydroxy-7-(trifluoromethyl)-3,4-dihydro-2H-1-benzopyran-2-carboxamide] was tested. Which EC50 did it give?
A: < 10 nM

Q: With `Cc1csc(C(=O)NC23CCC(NC(=O)[C@H]4C[C@@H](O)c5cc(Cl)ccc5O4)(CC2)[C@@H](O)C3)n1` [Compound 344, N-[(3S)-4-{[(2R,4R)-6-chloro-4-hydroxy-3,4-dihydro-2H-1-benzopyran-2-carbonyl]amino}-3-hydroxybicyclo[2.2.2]octan-1-yl]-4-methyl-1,3-thiazole-2-carboxamide] as the compound, how does the EC50 read?
A: 50 to 250 nM

Q: With `O=C(COc1cnc(C(F)(F)F)nc1)NC12CC(NC(=O)[C@H]3C[C@@H](O)c4cc(Cl)ccc4O3)(C1)C2` [Compound 228, (2R,4R)-6-chloro-4-hydroxy-N-[3-(2-{[2-(trifluoromethyl)pyrimidin-5-yl]oxy}acetamido)bicyclo[1.1.1]pentan-1-yl]-3,4-dihydro-2H-1-benzopyran-2-carboxamide] as the compound, how does the EC50 read?
A: 10 to 50 nM

Q: `O=C(COc1ccc(Cl)c(F)c1)NC12CC(NC(=O)c3cc(=O)c4ccc(O)cc4o3)(C1)C2` [Compound 295, N-{3-[2-(4-chloro-3-fluorophenoxy)acetamido]bicyclo[1.1.1]pentan-1-yl}-7-hydroxy-4-oxo-4H-1-benzopyran-2-carboxamide] was tested. Which EC50 did it give?
A: > 2000 nM

Q: With `C[C@]1(O)C[C@H](C(=O)NC23CC(NC(=O)COc4ccc(Cl)c(F)c4)(C2)C3)Oc2ccc(Cl)cc21` (single isomer, unassigned) [Compound 281] as the compound, how does the EC50 read?
A: < 10 nM

Q: With `O=C(COc1ccc(Cl)c(F)c1)NC12CCC(NC(=O)[C@H]3CC(=O)c4cc(Cl)ccc4O3)(C1)C2` [Compound 255, (2R)-6-chloro-N-{4-[2-(4-chloro-3-fluorophenoxy)acetamido]bicyclo[2.1.1]hexan-1-yl}-4-oxo-3,4-dihydro-2H-1-benzopyran-2-carboxamide] as the compound, how does the EC50 read?
A: < 10 nM

Q: For `CC(C)(C)OC(=O)CN1C[C@@H](C(=O)NC23CCC(NC(=O)COc4ccc(Cl)c(F)c4)(CC2)[C@@H](O)C3)Oc2ccc(Cl)cc21` [Compound 184, tert-butyl [(2S)-6-chloro-2-({(3S)-4-[2-(4-chloro-3-fluorophenoxy)acetamido]-3-hydroxybicyclo[2.2.2]octan-1-yl}carbamoyl)-2,3-dihydro-4H-1,4-benzoxazin-4-yl]acetate], which EC50 is on record?
A: 250 to 500 nM

Q: Which EC50 does the source give for `COc1ncc(OCC(=O)NC23CC(NC(=O)[C@H]4C[C@@H](O)c5cc(Cl)ccc5O4)(C2)C3)cn1` [Compound 227, (2R,4R)-6-chloro-4-hydroxy-N-(3-{2-[(2-methoxypyrimidin-5-yl)oxy]acetamido}bicyclo[1.1.1]pentan-1-yl)-3,4-dihydro-2H-1-benzopyran-2-carboxamide] here?
A: 50 to 250 nM

Q: `O=C(COc1ccc(Cl)c(F)c1)NC12CC(NC(=O)C3CC(O)c4ccc(F)cc4O3)(C1)C2` (stereo not drawn) [Compound 222, N-{3-[2-(4-chloro-3-fluorophenoxy)acetamido]bicyclo[1.1.1]pentan-1-yl}-7-fluoro-4-hydroxy-3,4-dihydro-2H-1-benzopyran-2-carboxamide] was tested. Which EC50 did it give?
A: < 10 nM

Q: How did the EC50 turn out when `O=C(COc1ccc(Cl)c(F)c1)NC12CCC(NC(=O)[C@H]3C[C@@H](O)c4cc(Cl)ccc4O3)(CC1)NC2=O` (racemic) [Compound 364, rac-(2R,4R)-6-chloro-N-{4-[2-(4-chloro-3-fluorophenoxy)acetamido]-3-oxo-2-azabicyclo[2.2.2]octan-1-yl}-4-hydroxy-3,4-dihydro-2H-1-benzopyran-2-carboxamide] was run?
A: < 10 nM

Q: `O=C(NC12CCC(NC(=O)[C@H]3C[C@@H](O)c4cc(Cl)ccc4O3)(C1)C2)c1ccc(OC(F)(F)F)cn1` [Compound 373, N-(4-{[(2R,4R)-6-chloro-4-hydroxy-3,4-dihydro-2H-1-benzopyran-2-carbonyl]amino}bicyclo[2.1.1]hexan-1-yl)-5-(trifluoromethoxy)pyridine-2-carboxamide] was tested. Which EC50 did it give?
A: 10 to 50 nM

Q: How did the EC50 turn out when `O=C(COc1ccc(C(F)(F)F)nc1)NC12CC(NC(=O)[C@@H]3C[C@H](O)c4cc(Cl)ccc4O3)(C1)C2` [Compound 299, (2S,4S)-6-chloro-4-hydroxy-N-[3-(2-{[6-(trifluoromethyl)pyridin-3-yl]oxy}acetamido)bicyclo[1.1.1]pentan-1-yl]-3,4-dihydro-2H-1-benzopyran-2-carboxamide] was run?
A: 10 to 50 nM

Q: How did the EC50 turn out when `Cc1cc(Cl)cc2c(=O)cc(C(=O)NC34CC(NC(=O)COc5ccc(Cl)c(F)c5)(C3)C4)oc12` [Compound 282, 6-chloro-N-{3-[2-(4-chloro-3-fluorophenoxy)acetamido]bicyclo[1.1.1]pentan-1-yl}-8-methyl-4-oxo-4H-1-benzopyran-2-carboxamide] was run?
A: > 2000 nM

Q: Which EC50 does the source give for `O=C(COc1ccc(Cl)c(F)c1)NC12CCC(NC(=O)[C@H]3C[C@@H](O)c4cc(Cl)ccc4O3)(CC1)CC2` [Compound 229, (2R,4R)-6-chloro-N-{4-[2-(4-chloro-3-fluorophenoxy)acetamido]bicyclo[2.2.2]octan-1-yl}-4-hydroxy-3,4-dihydro-2H-1-benzopyran-2-carboxamide] here?
A: < 10 nM
